Reference: patent publication US20250122183A1 (Pfizer Inc., priority 2023, published 2025)
Where two headings read alike, the source gives them in different places.

Columns and labels:
Assay type in all cases: biochemical
Settings in all cases: replicate number in parentheses
KAT8 Full length enzyme = KAT8 Full length enzyme (Homo sapiens (Human), UniProt Q9H7Z6); experiment: KAT8 assay (SAMDI-MS acetylation of H3 1-21 peptide)
KAT6A Full length enzyme = KAT6A Full length enzyme (Homo sapiens (Human), UniProt Q92794); experiment: KAT6A assay (SAMDI-MS acetylation of H3 1-21 peptide)
Sequence of KAT6A Full length enzyme (Q92794 other isoform, or with tags, fused parts or gaps): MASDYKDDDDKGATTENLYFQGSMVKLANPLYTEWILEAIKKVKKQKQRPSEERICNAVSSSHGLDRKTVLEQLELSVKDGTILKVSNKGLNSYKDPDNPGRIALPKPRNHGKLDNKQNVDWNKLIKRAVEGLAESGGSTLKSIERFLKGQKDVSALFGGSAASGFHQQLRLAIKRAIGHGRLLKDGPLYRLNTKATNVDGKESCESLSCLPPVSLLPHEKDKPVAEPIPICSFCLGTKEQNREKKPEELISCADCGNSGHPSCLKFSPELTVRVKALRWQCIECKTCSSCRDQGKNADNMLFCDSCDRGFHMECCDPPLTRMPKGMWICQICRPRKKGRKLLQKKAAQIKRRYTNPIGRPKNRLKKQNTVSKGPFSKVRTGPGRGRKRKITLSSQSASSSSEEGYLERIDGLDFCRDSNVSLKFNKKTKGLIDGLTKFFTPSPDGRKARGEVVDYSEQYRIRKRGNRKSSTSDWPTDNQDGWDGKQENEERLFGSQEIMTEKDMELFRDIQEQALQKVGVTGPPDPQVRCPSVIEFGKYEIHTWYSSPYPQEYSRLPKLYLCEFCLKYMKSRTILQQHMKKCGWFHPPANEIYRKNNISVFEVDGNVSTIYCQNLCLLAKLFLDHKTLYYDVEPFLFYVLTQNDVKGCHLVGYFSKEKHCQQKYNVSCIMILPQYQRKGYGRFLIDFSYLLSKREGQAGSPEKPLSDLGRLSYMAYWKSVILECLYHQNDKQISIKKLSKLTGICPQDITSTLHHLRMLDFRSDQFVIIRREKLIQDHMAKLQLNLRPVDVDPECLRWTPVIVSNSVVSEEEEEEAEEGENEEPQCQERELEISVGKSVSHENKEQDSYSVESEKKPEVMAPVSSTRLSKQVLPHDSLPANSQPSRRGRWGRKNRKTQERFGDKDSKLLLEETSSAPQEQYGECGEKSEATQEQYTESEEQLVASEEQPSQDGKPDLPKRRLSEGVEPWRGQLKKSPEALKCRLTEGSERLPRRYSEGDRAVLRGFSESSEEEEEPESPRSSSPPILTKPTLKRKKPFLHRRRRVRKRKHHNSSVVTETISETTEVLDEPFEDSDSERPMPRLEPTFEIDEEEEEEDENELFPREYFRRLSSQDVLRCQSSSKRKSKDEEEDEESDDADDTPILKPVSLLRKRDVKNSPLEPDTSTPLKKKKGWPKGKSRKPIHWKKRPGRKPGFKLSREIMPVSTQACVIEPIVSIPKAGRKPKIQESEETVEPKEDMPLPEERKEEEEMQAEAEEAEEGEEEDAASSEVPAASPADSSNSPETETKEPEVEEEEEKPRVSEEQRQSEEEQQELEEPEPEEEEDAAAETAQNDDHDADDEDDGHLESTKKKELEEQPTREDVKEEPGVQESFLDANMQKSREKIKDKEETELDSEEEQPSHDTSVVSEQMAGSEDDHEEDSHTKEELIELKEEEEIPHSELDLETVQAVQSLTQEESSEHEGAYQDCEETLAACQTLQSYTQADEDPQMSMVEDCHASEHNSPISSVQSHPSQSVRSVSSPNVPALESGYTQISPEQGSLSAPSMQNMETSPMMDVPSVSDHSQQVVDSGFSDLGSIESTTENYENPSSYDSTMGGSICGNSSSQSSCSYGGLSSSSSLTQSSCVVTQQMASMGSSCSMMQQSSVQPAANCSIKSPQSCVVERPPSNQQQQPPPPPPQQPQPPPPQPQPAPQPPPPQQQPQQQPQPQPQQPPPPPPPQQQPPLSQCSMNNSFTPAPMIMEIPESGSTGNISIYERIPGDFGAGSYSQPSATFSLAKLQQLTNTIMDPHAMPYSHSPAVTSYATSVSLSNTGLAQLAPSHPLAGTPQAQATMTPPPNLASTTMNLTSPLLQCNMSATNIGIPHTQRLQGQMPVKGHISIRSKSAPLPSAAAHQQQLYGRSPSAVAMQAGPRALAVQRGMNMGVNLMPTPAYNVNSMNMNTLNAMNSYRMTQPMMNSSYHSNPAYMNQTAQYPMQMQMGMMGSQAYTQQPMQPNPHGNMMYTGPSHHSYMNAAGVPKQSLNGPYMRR

KAT5 Full length enzyme = KAT5 Full length enzyme (Homo sapiens (Human), UniProt Q92993); experiment: KAT5 assay (SAMDI-MS acetylation of H4 1-21 peptide)
Sequence of KAT5 Full length enzyme (Q92993 whole entry): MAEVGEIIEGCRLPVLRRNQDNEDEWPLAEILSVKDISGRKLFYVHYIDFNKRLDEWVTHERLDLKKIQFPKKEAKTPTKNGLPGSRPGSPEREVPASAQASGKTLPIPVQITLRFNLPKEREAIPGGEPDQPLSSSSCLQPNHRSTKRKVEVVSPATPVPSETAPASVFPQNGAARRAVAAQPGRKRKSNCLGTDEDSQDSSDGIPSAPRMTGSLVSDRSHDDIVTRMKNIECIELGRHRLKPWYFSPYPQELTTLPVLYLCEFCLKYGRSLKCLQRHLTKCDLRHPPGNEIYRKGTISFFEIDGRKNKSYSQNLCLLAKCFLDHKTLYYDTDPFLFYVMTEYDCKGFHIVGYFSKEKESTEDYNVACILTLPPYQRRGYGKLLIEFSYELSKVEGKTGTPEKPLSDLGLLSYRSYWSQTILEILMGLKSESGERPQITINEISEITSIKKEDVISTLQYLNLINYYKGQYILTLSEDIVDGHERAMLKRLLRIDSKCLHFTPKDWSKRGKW

[1] = biological target: KAT7+JADE1+EAF6+ING5 4 protein complex (Homo sapiens (Human), UniProt O95251); experiment: KAT7 JADE1 assay (SAMDI-MS acetylation of H3 1-21 peptide)
[2] = Morrison equation fit, read-out: KAT8 Ki (nM) (replicate number)
[3] = Morrison equation fit, read-out: KAT6A Ki (nM) (replicate number)
[4] = Morrison equation fit, read-out: KAT5 Ki (nM) (replicate number)
[5] = Morrison equation fit, read-out: KAT7 JADE1 Ki (nM) (replicate number)

Sequence of KAT8 Full length enzyme (Q9H7Z6 whole entry): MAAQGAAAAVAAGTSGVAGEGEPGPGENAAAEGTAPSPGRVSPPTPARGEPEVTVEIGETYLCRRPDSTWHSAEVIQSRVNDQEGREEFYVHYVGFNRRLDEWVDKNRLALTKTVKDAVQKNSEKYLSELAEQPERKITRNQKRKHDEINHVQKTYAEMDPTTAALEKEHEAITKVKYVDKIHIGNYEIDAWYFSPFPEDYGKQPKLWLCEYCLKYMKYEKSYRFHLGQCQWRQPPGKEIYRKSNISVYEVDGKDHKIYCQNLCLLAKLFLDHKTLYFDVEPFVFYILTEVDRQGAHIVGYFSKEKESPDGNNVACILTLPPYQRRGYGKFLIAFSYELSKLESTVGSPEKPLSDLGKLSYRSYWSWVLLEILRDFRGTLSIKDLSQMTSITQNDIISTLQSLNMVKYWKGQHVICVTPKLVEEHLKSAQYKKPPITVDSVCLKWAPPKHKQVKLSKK

SMILES	Ki (KAT8 Full length enzyme; [2])	Ki (KAT6A Full length enzyme; [3])	Ki (KAT5 Full length enzyme; [4])	Ki [1, 5]	Ki (KAT8 Full length enzyme; read-out: KAT8 Ki (nM) (replicate))	Ki (KAT6A Full length enzyme; read-out: KAT6A Ki (nM) (replicate))	Ki (KAT5 Full length enzyme; read-out: KAT5 Ki (nM) (replicate))	Ki ([1]; read-out: KAT7 JADE1 Ki (nM) (replicate))
CCOc1cc(C)c(F)cc1S(=O)(=O)Nc1noc2cc(Nc3cc(C4CC4)n[nH]3)c(F)c(OC)c12 [Example 70, N-{6-[(3-cyclopropyl-1H-pyrazol-5-yl)amino]-5-fluoro-4-methoxy-1,2-benzoxazol-3-yl}-2-ethoxy-5-fluoro-4-methylbenzene-1-sulfonamide]	3880 nM	1.9 nM	280 nM	16.4 nM	–	–	–	–
COc1cc2c(NS(=O)(=O)c3c(OC)cccc3OC)noc2cc1Nc1cc(C(C)(F)F)n[nH]1 [Example 66, N-(6-{[3-(1,1-difluoroethyl)-1H-pyrazol-5-yl]amino}-5-methoxy-1,2-benzoxazol-3-yl)-2,6-dimethoxybenzene-1-sulfonamide]	> 13000 nM	10.7 nM	871 nM	130 nM	–	–	–	–
COc1cc2c(NS(=O)(=O)c3c(OC)cccc3OC)noc2cc1Nc1cc(C(C)CCO)[nH]n1 (stereo not drawn) [Example 88, N-(6-{[5-(4-hydroxybutan-2-yl)-1H-pyrazol-3-yl]amino}-5-methoxy-1,2-benzoxazol-3-yl)-2,6-dimethoxybenzene-1-sulfonamide]	> 13000 nM	27 nM	6020 nM	378 nM	–	–	–	–
COc1cccc(OC)c1S(=O)(=O)Nc1noc2cc(Nc3ccccn3)cc(OC)c12 [Example 18, 2,6-dimethoxy-N-{4-methoxy-6-[(pyridin-2-yl)amino]-1,2-benzoxazol-3-yl}benzene-1-sulfonamide]	5960 nM	1 nM	5420 nM	245 nM	–	–	–	–
COc1cc2c(NS(=O)(=O)c3c(OC)cccc3OC)noc2cc1Nc1cc(C2CC2)n(C)n1 [Example 103, N-{6-[(5-cyclopropyl-1-methyl-1H-pyrazol-3-yl)amino]-5-methoxy-1,2-benzoxazol-3-yl}-2,6-dimethoxybenzene-1-sulfonamide]	6010 nM	2.8 nM	254 nM	47.4 nM	–	–	–	–
COc1cc2c(NS(=O)(=O)c3c(OC)cc(-c4cnn(C)n4)cc3OC)noc2cc1Nc1cc(C2CC2)n[nH]1 [Example 212, N-{6-[(3-cyclopropyl-1 H-pyrazol-5-yl)amino]-5-methoxy-1,2-benzoxazol-3-yl}-2,6-dimethoxy-4-(2-methyl-2H-1,2,3-triazol-4-yl)benzene-1-sulfonamide]	1410 nM	0.7 nM	159 nM	11.1 nM	–	–	–	–
COc1cc2c(NS(=O)(=O)c3c(OC)cc(-c4ccccn4)cc3OC)noc2cc1Nc1cc(C2CC2)n[nH]1 [Example 118, N-{6-[(3-cyclopropyl-1H-pyrazol-5-yl)amino]-5-methoxy-1,2-benzoxazol-3-yl}-2,6-dimethoxy-4-(pyridin-2-yl)benzene-1-sulfonamide]	731 nM	0.9 nM	66.1 nM	8.1 nM	–	–	–	–
COc1cc2c(NS(=O)(=O)c3c(OC)cccc3OC)noc2cc1Nc1ncc(C)cn1 [Example 110, 2,6-dimethoxy-N-{5-methoxy-6-[(5-methylpyrimidin-2-yl)amino]-1,2-benzoxazol-3-yl}benzene-1-sulfonamide]	> 13000 nM	44.1 nM	6610 nM	2820 nM	–	–	–	–
COc1cc2c(NS(=O)(=O)c3c(OC)cc(-c4ccn(C)n4)cc3OC)noc2cc1Nc1cc(C2CC2C)n[nH]1 (single isomer, unassigned) [Example 242, 2,6-dimethoxy-N-(5-methoxy-6-{[3-(2-methylcyclopropyl)-1 H-pyrazol-5-yl]amino}-1,2-benzoxazol-3-yl)-4-(1-methyl-1H-pyrazol-3-yl)benzene-1-sulfonamide]	439 nM	0.9 nM	34 nM	9.2 nM	–	–	–	–
COc1cc2c(NS(=O)(=O)c3c(OC)cc(C(=O)N4CC[C@H](F)C4)cc3OC)noc2cc1Nc1cc(C2CC2)n[nH]1 [Example 259, N-{6-[(3-cyclopropyl-1H-pyrazol-5-yl)amino]-5-methoxy-1,2-benzoxazol-3-yl}-4-[(3S)-3-fluoropyrrolidine-1-carbonyl]-2,6-dimethoxybenzene-1-sulfonamide]	–	–	–	–	4990 nM	1.2 nM	85.1 nM	6.7 nM
COc1cc2c(NS(=O)(=O)c3c(OC)cc([C@@H]4CCCO4)cc3OC)noc2cc1Nc1cc(C2CC2)n[nH]1 [Example 140, N-{6-[(3-cyclopropyl-1H-pyrazol-5-yl)amino]-5-methoxy-1,2-benzoxazol-3-yl}-2,6-dimethoxy-4-[(2S)-oxolan-2-yl]benzene-1-sulfonamide]	911 nM	1.5 nM	156 nM	11.4 nM	–	–	–	–
CCc1cc(Nc2cc3onc(NS(=O)(=O)c4cc(F)ccc4Br)c3cc2OC)n[nH]1 [Example 135, 2-bromo-N-{6-[(5-ethyl-1H-pyrazol-3-yl)amino]-5-methoxy-1,2-benzoxazol-3-yl}-5-fluorobenzene-1-sulfonamide]	> 13000 nM	52.6 nM	3080 nM	156 nM	–	–	–	–
CCc1cc(Nc2cc3onc(NS(=O)(=O)c4ccc(-c5ccccc5)cc4)c3cc2OC)n[nH]1 [Example 130, N-{6-[(5-ethyl-1 H-pyrazol-3-yl)amino]-5-methoxy-1,2-benzoxazol-3-yl}[1,1′-biphenyl]-4-sulfonamide]	7520 nM	13 nM	2010 nM	85.2 nM	–	–	–	–
COc1cc2c(NS(=O)(=O)c3c(OC)cc(-c4ncco4)cc3OC)noc2cc1Nc1cc(C2CC2)n[nH]1 [Example 08, N-{6-[(3-cyclopropyl-1H-pyrazol-5-yl)amino]-5-methoxy-1,2-benzoxazol-3-yl}-2,6-dimethoxy-4-(1,3-oxazol-2-yl)benzene-1-sulfonamide]	1620 nM	1.2 nM	46.9 nM	12.8 nM	–	–	–	–
CCc1cc(Nc2cc3onc(NS(=O)(=O)c4cccc(Oc5ccc(C)cc5)c4)c3cc2OC)n[nH]1 [Example 126, N-{6-[(5-ethyl-1 H-pyrazol-3-yl)amino]-5-methoxy-1,2-benzoxazol-3-yl}-3-(4-methylphenoxy)benzene-1-sulfonamide]	> 13000 nM	52.1 nM	5040 nM	237 nM	–	–	–	–
COc1cccc(OC)c1S(=O)(=O)Nc1noc2cc(Nc3cccnn3)cc(OC)c12 [Example 19, 2,6-dimethoxy-N-{4-methoxy-6-[(pyridazin-3-yl)amino]-1,2-benzoxazol-3-yl}benzene-1-sulfonamide]	> 16300 nM	30.8 nM	15700 nM	516 nM	–	–	–	–
COc1cc2c(NS(=O)(=O)c3c(OC)cc(-c4nccc(C(C)N(C)C)n4)cc3OC)noc2cc1Nc1cc(C2CC2)n[nH]1 (stereo not drawn) [Example 227, N-{6-[(3-cyclopropyl-1 H-pyrazol-5-yl)amino]-5-methoxy-1,2-benzoxazol-3-yl}-4-{4-[1-(dimethylamino)ethyl]pyrimidin-2-yl}-2,6-dimethoxybenzene-1-sulfonamide]	3490 nM	0.4 nM	218 nM	6.9 nM	–	–	–	–
CCc1cc(Nc2cc3onc(NS(=O)(=O)c4ccc(Oc5ccccc5)cc4)c3cc2OC)n[nH]1 [Example 132, N-{6-[(5-ethyl-1 H-pyrazol-3-yl)amino]-5-methoxy-1,2-benzoxazol-3-yl}-4-phenoxybenzene-1-sulfonamide]	> 13000 nM	82.7 nM	5520 nM	410 nM	–	–	–	–
